For this assay, the system named is Leiomyosarcoma Tumorzell-Linie SK-UT-1B. Kind of assay: Test 2: inhibition of proliferation of cultured human tumour cells (14C-thymidine incorporation). In kind it is cell-based. Conditions: Skut1B, SK-UT-1B cells, 48 h incubation with compound, then a further 24 h with 14C-thymidine, measured in duplicate, read-out: Hemmung der SKUT-1B-Proliferation IC50. The text has this:
Inhibierung der Profileration von kultivierten humanen Tumorzellen
Zellen der Leiomyosarcoma Tumorzell-Linie SK-UT-1B (erhalten von der American Type Culture Collection (ATCC)) wurden in Minimum Essential Medium mit nicht essentiellen Aminosäuren (Gibco), ergänzt mit Natrium-Pyruvat (1 mMol), Glutamin (2 mMol) und 10% fötalem Rinderserum (Gibco) kultiviert und in der log-Wachstumsphase geerntet. Anschließend wurden die SK-UT-1B-Zellen in Cytostar® multi-well Platten (Amersham) mit einer Dichte von 4000 cells per well eingebracht und über Nacht in einem Inkubator inkubiert. Verschiedene Konzentrationen der Verbindungen (gelöst in DMSO; Endkonzentration: <1%) wurden zu den Zellen zugegeben. Nach 48 Stunden Inkubation wurde ^14C-Thymidin (Amersham) zu jedem well zugesetzt, und es wurde weitere 24 Stunden inkubiert. Die Menge an ^14C-Thymidin, die in Gegenwart des Inhibitors in die Tumorzellen eingebaut wurde und die die Zahl der Zellen in der S-Phase repräsentiert, wurde in einem Wallace 1450 Microbeta Flüssig Scintillations Zähler gemessen. IC50-Werte für die Inhibierung der Proliferation (= Inhibierung von eingebautem ^14C-Thymidin) wurden - unter Korrektur für die Hintergrundstrahlung - berechnet. Alle Messungen wurden zweifach ausgeführt.
Background: Dividing cells build labelled thymidine or BrdU into new DNA.

Structures are written as SMILES.

Results on ten compounds are retold here after patent publication EP1071665B1, “SUBSTITUTED INDOLINONES HAVING AN INHIBITING EFFECT ON KINASES AND CYCLINE/CDK COMPLEXES” (Boehringer Ingelheim Pharma GmbH & Co.KG, priority 1998, dated 1999).

With `NC(=O)c1ccc2c(c1)/C(=C(/Nc1ccccc1)c1ccccc1)C(=O)N2` [Beispiel 4(2), 3-Z-(1-Phenylamino-1-phenyl-methylen)-5-amido-2-indolinon], the IC50 is 170 nM.
Under `NC(=O)c1ccc2c(c1)/C(=C(/Nc1ccc(CNCc3ccccc3)cc1)c1ccccc1)C(=O)N2` [4(122), 3-Z-[1-(4-(N-(Phenyl-methyl)-aminomethyl)-phenylamino)-1-phenyl-methylen]-5-amido-2-indolinon-trifluoracetat] stands 40 nM; under `CCCCNCc1ccc(N/C(=C2\C(=O)Nc3ccc(C(N)=O)cc32)c2ccccc2)cc1` [4(120), 3-2-[1-(4-(N-Butyl-aminomethyl)-phenylamino)-1-phenylmethylen]-5-amido-2-indolinon-trifluoracetat], 40 nM.
The value for `CN(Cc1ccccc1)Cc1ccc(N/C(=C2\C(=O)Nc3ccc(C(N)=O)cc32)c2ccccc2)cc1` [Beispiel 4(94), 3-Z-[1-(4-(N-Methyl-N-benzyl-amino-methyl)-phenylamino)-1-phenyl-methylen]-5-amido-2-indolinon-trifluoracetat] was 30 nM.
The value for `NC(=O)c1ccc2c(c1)/C(=C(/Nc1ccc(Br)cc1)c1ccccc1)C(=O)N2` [Beispiel 4(14), 3-Z-[1-(4-Brom-phenylamino)-1-phenyl-methylen]-5-amido-2-indolinon] was 180 nM; that for `NC(=O)c1ccc2c(c1)/C(=C(/Nc1ccc(CN3CCCCC3)cc1)c1ccccc1)C(=O)N2` [Beispiel 4(53), 3-Z-[1-(4-Piperidinomethyl-phenylamino)-1-phenyl-methylen] -5-amido-2-indolinon-trifluoracetat] was 10 nM.
Turning to `NC(=O)c1ccc2c(c1)/C(=C(/Nc1ccc(CN3CCC(Cc4ccccc4)CC3)cc1)c1ccccc1)C(=O)N2` [Beispiel 4(60), 3-Z-[1-(4-(4-Benzyl-piperidinomethyl)-phenylamino)-1-phenyl-methylen]-5-amido-2-indolinon], the IC50 is 30 nM.
Under `CCN(CC)CCCOc1ccc(N/C(=C2\C(=O)Nc3ccc(C(N)=O)cc32)c2ccccc2)cc1` [4(129), 3-Z-[1-(4-(3-Diethylamino-propoxy)-phenylamino)-1-phenylmethylen] -5-amido-2-indolinon-trifluoracetat] stands 40 nM; under `NC(=O)c1ccc2c(c1)/C(=C(/Nc1ccc(CN3CCCCCC3)cc1)c1ccccc1)C(=O)N2` [Beispiel 4(54), 3-Z-[1-(4-Hexamethyleniminomethyl-phenylamino)-1-phenylmethylen]-5-amido-2-indolinon-trifluoracetat], 30 nM.
For the compound `CN(C)Cc1ccc(N/C(=C2\C(=O)Nc3ccc(C(N)=O)cc32)c2ccccc2)cc1` [Beispiel 4(62), 3-Z-[1-(4-Dimethylaminomethyl-phenylamino)-1-phenyl-methylen]-5-amido-2-indolinon], the IC50 came out at 50 nM.
